Test results published in publication PMC5733478, “A Non-imaging High Throughput Approach to Chemical Library Screening at the Unmodified Adenosine-A3 Receptor in Living Cells” (Frontiers in Pharmacology, 2017).
Structures can show the parent of a compound that is named as a salt.

These compounds were tested against T1, human A3AR (Homo sapiens, UniProt P0DMS8) (assay: LOPAC library primary screen: single concentration (10 μM) inhibition of 25 nM CA200645 binding, PHERAstar FS). Settings: not given.
T1 construct: expressed in transfected cells
T1 sequence (P0DMS8 1-318): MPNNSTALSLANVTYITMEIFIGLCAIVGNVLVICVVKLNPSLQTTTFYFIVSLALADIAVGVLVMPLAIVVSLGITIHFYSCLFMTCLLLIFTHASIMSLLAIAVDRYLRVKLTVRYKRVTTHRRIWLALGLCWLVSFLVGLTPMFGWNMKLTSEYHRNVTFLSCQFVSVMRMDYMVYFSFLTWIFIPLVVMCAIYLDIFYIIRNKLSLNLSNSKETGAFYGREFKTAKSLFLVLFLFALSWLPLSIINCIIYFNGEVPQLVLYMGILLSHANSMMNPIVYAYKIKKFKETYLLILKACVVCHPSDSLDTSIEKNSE
With S=C(NC1CCCCC1)N1CCC(c2cnc[nH]2)CC1 [Thioperamide maleate] the “% 25 nM CA200645 binding” value was 99.7 ± 10.4%. For CSc1ccc2c(c1)N(CCC1CCCCN1C)c1ccccc1S2 (stereo not drawn) [Thioridazine hydrochloride], the “% 25 nM CA200645 binding” value was 102.5 ± 9.6%. CCN(CC)CCNC(=O)c1cc(S(C)(=O)=O)ccc1OC [Tiapride hydrochloride] was tested, and the “% 25 nM CA200645 binding” value was 98.9 ± 15.2%. Clc1ccc2nsnc2c1NC1=NCCN1 [Tizanidine hydrochloride] was tested, and the “% 25 nM CA200645 binding” value was 107.2 ± 6.1%. In the case of Cc1cccc(C)c1NC(=O)C(C)N (stereo not drawn) [Tocainide hydrochloride], the “% 25 nM CA200645 binding” value is reported as 102.0 ± 15.0%. For Cc1ccc(S(=O)(=O)NC(=O)NN2CCCCCC2)cc1 [Tolazamide], the “% 25 nM CA200645 binding” value was 109.2 ± 9.0%. For CCCCNC(=O)NS(=O)(=O)c1ccc(C)cc1 [Tolbutamide], the “% 25 nM CA200645 binding” value was 101.8 ± 7.4%. CNCC[C@@H](Oc1ccccc1C)c1ccccc1 [Tomoxetine] was tested, and the “% 25 nM CA200645 binding” value was 97.5 ± 8.3%. With CC[C@@]1(O)C(=O)OCc2c1cc1n(c2=O)Cc2cc3c(CN(C)C)c(O)ccc3nc2-1.Cl.O [Topotecan hydrochloride hydrate] the “% 25 nM CA200645 binding” value was 102.0 ± 7.8%. CCOC(=O)[C@H](CCc1ccccc1)N[C@@H](C)C(=O)N1[C@H](C(=O)O)C[C@H]2CCCC[C@@H]21 [Trandolapril] was tested, and the “% 25 nM CA200645 binding” value was 99.7 ± 12.5%. With COc1ccc(/C=C/C(=O)Nc2ccccc2C(=O)O)cc1OC [Tranilast] the “% 25 nM CA200645 binding” value was 95.7 ± 1.4%. For N[C@@H]1C[C@H]1c1ccccc1 [Tranylcypromine hydrochloride], the “% 25 nM CA200645 binding” value was 100.1 ± 11.2%. In the case of O=c1n(CCCN2CCN(c3cccc(Cl)c3)CC2)nc2ccccn12 [Trazodone hydrochloride], the “% 25 nM CA200645 binding” value is reported as 104.7 ± 11.3%. C[C@]12C=CC(=O)C=C1CC[C@H]1[C@@H]3C[C@@H](O)[C@](O)(C(=O)CO)[C@@]3(C)C[C@H](O)[C@@]12F [Triamcinolone] was tested, and the “% 25 nM CA200645 binding” value was 95.9 ± 21.3%. In the case of Nc1nc(N)c2nc(-c3ccccc3)c(N)nc2n1 [Triamterene], the “% 25 nM CA200645 binding” value is reported as 95.3 ± 10.4%. In the case of O=C(CCCN1CCC(O)(c2cccc(C(F)(F)F)c2)CC1)c1ccc(F)cc1 [Trifluperidol hydrochloride], the “% 25 nM CA200645 binding” value is reported as 102.8 ± 9.3%. CN(C)CCCN1c2ccccc2Sc2ccc(C(F)(F)F)cc21 [Triflupromazine hydrochloride] was tested, and the “% 25 nM CA200645 binding” value was 99.0 ± 16.0%. In the case of OC(CCN1CCCCC1)(c1ccccc1)C1CCCCC1 (stereo not drawn) [Trihexyphenidyl hydrochloride], the “% 25 nM CA200645 binding” value is reported as 99.4 ± 5.7%. Cc1ccc(/C(=C\CN2CCCC2)c2ccccn2)cc1.Cl [Triprolidine hydrochloride] was tested, and the “% 25 nM CA200645 binding” value was 90.2 ± 0.5%. For N[C@@H]1[C@H]2CN(c3nc4c(cc3F)c(=O)c(C(=O)O)cn4-c3ccc(F)cc3F)C[C@@H]12 [Trovafloxacin mesylate], the “% 25 nM CA200645 binding” value was 94.4 ± 17.2%. For NCCc1c[nH]c2ccccc12 [Tryptamine hydrochloride], the “% 25 nM CA200645 binding” value was 98.8 ± 5.7%. In the case of CC(C)(C)NCC(O)c1ccccc1Cl (stereo not drawn) [Tulobuterol hydrochloride], the “% 25 nM CA200645 binding” value is reported as 99.9 ± 4.7%. CC(C)(C)c1cc(C=C(C#N)C#N)cc(C(C)(C)C)c1O [Tyrphostin A9] was tested, and the “% 25 nM CA200645 binding” value was 93.2 ± 14.5%. With N#CC(C#N)=C(N)/C(C#N)=C/c1ccc(O)cc1 [Tyrphostin AG 112] the “% 25 nM CA200645 binding” value was 102.8 ± 4.7%. N#C/C(=C\c1ccc(O)c(O)c1)C(=O)Nc1ccccc1 [Tyrphostin AG 494] was tested, and the “% 25 nM CA200645 binding” value was 91.5 ± 7.4%. N#C/C(=C\c1ccc(O)c(O)c1)C(=O)c1ccc(O)c(O)c1 [Tyrphostin AG 538] was tested, and the “% 25 nM CA200645 binding” value was 90.2 ± 14.0%. For CC(C)(C)c1cc(/C=C(\C#N)C(N)=S)cc(C(C)(C)C)c1O [Tyrphostin AG 879], the “% 25 nM CA200645 binding” value was 57.5 ± 23.0%. For COc1cc2ncnc(Nc3cccc(Cl)c3)c2cc1OC [Tyrphostin AG 1478], the “% 25 nM CA200645 binding” value was 90.3 ± 8.9%. With N#CC(=C(/N)Sc1ccccc1N)/C(C#N)=C(/N)Sc1ccccc1N [U0126] the “% 25 nM CA200645 binding” value was 97.2 ± 19.0%. In the case of COc1ccc2c(c1)CC[C@@H]1[C@@H]2CC[C@]2(C)[C@@H](NCCCCCCN3C(=O)C=CC3=O)CC[C@@H]12 [U-73122], the “% 25 nM CA200645 binding” value is reported as 73.1 ± 7.4%. In the case of COc1ccc2c(c1)CC[C@@H]1[C@@H]2CC[C@]2(C)[C@@H](NCCCCCCN3C(=O)CCC3=O)CC[C@@H]12 [U-73343], the “% 25 nM CA200645 binding” value is reported as 99.9 ± 5.3%. C[C@]12C=CC(=O)C=C1CC[C@@H]1C2=CC[C@]2(C)[C@@H](C(=O)CN3CCN(c4cc(N5CCCC5)nc(N5CCCC5)n4)CC3)CC[C@@H]12.O=C(O)/C=C\C(=O)O [U-74389G maleate] was tested, and the “% 25 nM CA200645 binding” value was 36.9 ± 10.8%. With CCCN(CCC)C1Cc2cc(OC)c(OC)cc2C1.O=C(O)/C=C\C(=O)O [U-99194A maleate] the “% 25 nM CA200645 binding” value was 101.3 ± 8.9%. For CC(C)Oc1cccnc1N(C)C1CCN(Cc2ccccc2)CC1.O=C(O)/C=C\C(=O)O [U-101958 maleate], the “% 25 nM CA200645 binding” value was 102.1 ± 9.0%. In the case of c1ccc(C(NCc2cccnc2)(c2ccccc2)c2ccccc2)cc1 [UCL 2077], the “% 25 nM CA200645 binding” value is reported as 52.2 ± 5.4%. With Brc1c(NC2=NCCN2)ccc2nccnc12 [UK 14,304] the “% 25 nM CA200645 binding” value was 102.1 ± 10.4%. For COc1ccccc1N1CCN(CCCNc2cc(=O)n(C)c(=O)n2C)CC1 [Urapidil hydrochloride], the “% 25 nM CA200645 binding” value was 97.1 ± 1.5%. In the case of COc1ccccc1N1CCN(CCCNc2c(C)c(=O)n(C)c(=O)n2C)CC1 [Urapidil, 5-Methyl-], the “% 25 nM CA200645 binding” value is reported as 83.5 ± 22.8%. O=c1ccn([C@@H]2O[C@H](COP(=O)([O-])OP(=O)([O-])O)[C@@H](O)[C@H]2O)c(=O)[nH]1.[Na+].[Na+] [Uridine 5'-diphosphate sodium] was tested, and the “% 25 nM CA200645 binding” value was 100.6 ± 5.7%. In the case of C[C@H](N)CN1CCc2ccc(Br)cc21.C[C@H](N)CN1CCc2ccc(Br)cc21.O=C(O)/C=C/C(=O)O [VER-3323 hemifumarate salt], the “% 25 nM CA200645 binding” value is reported as 107.7 ± 7.9%. In the case of CCCC(CCC)C(=O)O [Valproic acid sodium], the “% 25 nM CA200645 binding” value is reported as 99.8 ± 9.6%. With CCN(CC)C(=O)c1ccc(O)c(OC)c1 [Vanillic acid diethylamide] the “% 25 nM CA200645 binding” value was 101.7 ± 2.4%. With O=C(O)C(O)C(O)C(=O)O.c1cnc2cc3c(cc2n1)[C@@H]1CNC[C@H]3C1 [Varenicline tartrate] the “% 25 nM CA200645 binding” value was 90.5 ± 2.6%. COc1ccc(C(CN(C)C)C2(O)CCCCC2)cc1 (stereo not drawn) [Venlafaxine hydrochloride] was tested, and the “% 25 nM CA200645 binding” value was 97.3 ± 8.5%. CC[C@]1(O)C[C@@H]2CN(CCc3c([nH]c4ccccc34)[C@@](C(=O)OC)(c3cc4c(cc3OC)N(C)[C@H]3[C@@](O)(C(=O)OC)[C@H](OC(C)=O)[C@]5(CC)C=CCN6CC[C@]43[C@@H]65)C2)C1.O=S(=O)(O)O [Vinblastine sulfate salt] was tested, and the “% 25 nM CA200645 binding” value was 98.2 ± 16.0%. In the case of CC[C@]1(O)C[C@H]2CN(CCc3c([nH]c4ccccc34)[C@@](C(=O)OC)(c3cc4c(cc3OC)N(C=O)[C@H]3[C@@](O)(C(=O)OC)[C@H](OC(C)=O)[C@]5(CC)C=CCN6CC[C@]43[C@@H]65)C2)C1 [Vincristine sulfate], the “% 25 nM CA200645 binding” value is reported as 106.1 ± 21.2%. In the case of CCOC(=O)C1=C[C@]2(CC)CCCN3CCc4c(n1c1ccccc41)[C@@H]32 [Vinpocetine], the “% 25 nM CA200645 binding” value is reported as 97.3 ± 11.5%. In the case of C[C@@H](c1ncncc1F)[C@](O)(Cn1cncn1)c1ccc(F)cc1F [Voriconazole], the “% 25 nM CA200645 binding” value is reported as 96.1 ± 10.4%. With COc1ccccc1N1CCN(CCN(C(=O)C2CCCCC2)c2ccccn2)CC1.O=C(O)/C=C\C(=O)O [WAY-100635 maleate] the “% 25 nM CA200645 binding” value was 90.8 ± 17.8%. COc1cccc(OC)c1OCCNCC1COc2ccccc2O1.Cl (stereo not drawn) [WB-4101 hydrochloride] was tested, and the “% 25 nM CA200645 binding” value was 76.0 ± 5.8%. For C#C[C@]1(O)CC[C@H]2[C@@H]3CCC4=Cc5nc6nc7ccccc7n6cc5C[C@]4(C)[C@H]3CC[C@@]21C [WIN 62,577], the “% 25 nM CA200645 binding” value was 67.3 ± 5.6%. For COC[C@H]1OC(=O)c2coc3c2[C@@]1(C)C1=C(C3=O)[C@@H]2CCC(=O)[C@@]2(C)C[C@H]1OC(C)=O [Wortmannin from Penicillium funiculosum], the “% 25 nM CA200645 binding” value was 82.6 ± 17.7%.

Same assay, conditions: % of control wells (1% DMSO and 25 nM CA200645); compounds at 10 µM; […]; mean ± SD, three experiments in duplicate
CN1CCN(CCCN2c3ccccc3Sc3ccc(C(F)(F)F)cc32)CC1 [Trifluoperazine dihydrochloride] was tested, and the “% 25 nM CA200645 binding” value was 97.1 ± 25.1%.

Same assay, conditions: % of control wells (1% DMSO and 25 nM CA200645); compounds at 10 µM; whole live cells expressing the A3AR; mean ± SD, three experiments in duplicate
CCCCNc1c(C(=O)OCC)c(C)nc2c1cnn2CC [Tracazolate] was tested, and the “% 25 nM CA200645 binding” value was 98.9 ± 4.3%. COc1cc2c(cc1OC)-c1c/c(=N\c3c(C)cc(C)cc3C)n(C)c(=O)n1CC2 [Trequinsin hydrochloride] was tested, and the “% 25 nM CA200645 binding” value was 88.3 ± 40.0%. In the case of N#CC(C#N)=Cc1ccc(O)c(O)c1 [Tyrphostin 23], the “% 25 nM CA200645 binding” value is reported as 84.9 ± 6.4%.

Same assay, conditions: compounds tested at 10 µM; % of control wells (1% DMSO and 25 nM CA200645); whole live cells expressing the A3AR; mean ± SD, three experiments in duplicate
In the case of N#CC(C#N)=C(N)/C(C#N)=C/c1cc(O)c(O)c(O)c1 [Tyrphostin 51], the “% 25 nM CA200645 binding” value is reported as 94.9 ± 2.9%.
